Reference: ChEMBL document CHEMBL1921687, “(2-Benzyl-2,3,4,5-tetrahydro-1H-pyrido[4,3-b]indol-8-yl)-acetic acid: an aldose reductase inhibitor and antioxidant of zwitterionic nature” (Bioorg Med Chem, 2011)
Activity calls are given as the source filed them. The calls are words filed in the database; no cut-off is given here.

How the values were obtained:
Erythrocyte [1] = test: Antioxidant activity in Wistar rat erythrocytes assessed as prolongation of initial inhibition period-lag phase of t-BuOOH-induced hemolysis at 2.5 uM preincubated for 30 mins before induction measured up to 5 hrs by spectrophotometry; format: functional, cell-based
[2] = molecular target: Aldo-keto reductase family 1 member B1 (Homo sapiens, UniProt P15121); test: Inhibition of aldose reductase
Rattus norvegicus [3] = test: Antidiabetic activity in streptozotocin-induced diabetic rat assessed as reduction in blood glucose level at 25 mg/kg intra-gastrically administered bid for 4 days followed by single dose on 5th day measured after 3 hrs final dose; format: functional, organism-based; design: dose 25 mg/kg
Rattus norvegicus [4] = test: Inhibition of sorbitol accumulation in streptozotocin-induced diabetic rat erythrocytes at 25 mg/kg intra-gastrically bid for 4 days followed by single dose on 5th day measured after 3 hrs final dose by resazurin reduction assay; format: functional, organism-based; design: dose 25 mg/kg
Erythrocyte [5] = test: Antioxidant activity in Wistar rat erythrocytes assessed as prolongation of initial inhibition period-lag phase of t-BuOOH-induced hemolysis at 100 uM treated 30 mins after induction measured up to 5 hrs by spectrophotometry; format: functional, cell-based
Erythrocyte [6] = test: Antioxidant activity in Wistar rat erythrocytes assessed as prolongation of initial inhibition period-lag phase of AAPH-induced hemolysis at 100 uM preincubated for 30 mins before induction measured up to 5 hrs by spectrophotometry; format: functional, cell-based
Erythrocyte [7] = test: Antioxidant activity in Wistar rat erythrocytes assessed as prolongation of initial inhibition period-lag phase of t-BuOOH-induced hemolysis at 10 mM preincubated for 30 mins before induction measured up to 5 hrs by spectrophotometry; format: functional, cell-based
Erythrocyte [8] = test: Antioxidant activity in Wistar rat erythrocytes assessed as prolongation of initial inhibition period-lag phase of t-BuOOH-induced hemolysis at 100 uM preincubated for 30 mins before induction measured up to 5 hrs by spectrophotometry; format: functional, cell-based

**Q.** Which Activity (Erythrocyte [1]) does the source give for `O=C(O)Cc1ccc2[nH]c3c(c2c1)CN(Cc1ccccc1)CC3` here?
**A.** Its Activity is “Active”.

**Q.** What about the IC50 [2] of the same molecule?
**A.** Its IC50 is 18.2 µM.

**Q.** And the Activity (Rattus norvegicus [3])?
**A.** Its Activity is “inactive”.

**Q.** And the inhibition (Rattus norvegicus [4])?
**A.** The inhibition was “Active”.

**Q.** What about the Activity (Erythrocyte [5]) of the same molecule?
**A.** The Activity was “inactive”.

**Q.** What about the Activity (Erythrocyte [6]) of the same molecule?
**A.** Its Activity is “Active”.

**Q.** `Cc1c(C)c2c(c(C)c1O)CCC(C)(C(=O)O)O2` (centres undefined) was tested. Which Activity (Erythrocyte [6]) did it give?
**A.** The Activity was “Active”.

**Q.** `NCCC(=O)N[C@@H](Cc1c[nH]cn1)C(=O)O` was tested. Which Activity (Erythrocyte [7]) did it give?
**A.** Its Activity is “Active”.

**Q.** With `COc1ccc2[nH]cc(CCNC(C)=O)c2c1` as the molecule, how does the Activity (Erythrocyte [8]) read?
**A.** Its Activity is “inactive”.
